Experimental data from US20240197650A1, “Combination of Cinnamaldheyde and Eugenol with Antimycotic Activity” (priority 2021, published 2024).

Columns and labels:
Type in all cases: cell-based
Candida spp. = test: Disk diffusion method, 18 Candida spp. strains (distribution)
Description: (§1) A total of eighteen strains belonging to Candida spp. (15 C. albicans, 2 C. glabrata and 1 C. lusitaniae) derived from a collection of vaginal strains isolated in CHROMAgar Candida (BD Italia SpA, Milan, Italy) were grown on Potato Dextrose Agar (Oxoid Thermofisher SpA, Milan, Italy) at 35° C. for 24 hours.
(§2) Colonies were re-suspended in sterile saline at a density corresponding to #0.5 McFarland (opacity standard). #0.5 McF correspond to 1.4×10^6 colony forming units (CFU)/ml for C. albicans, 4.3×10^6 CFU/ml for C. glabrata and 3×10^6 CFU/ml for C. lusitaniae [Guinea J. et al., Rapid antifungal susceptibility determination for yeast isolates by use of Etest performed directly on blood samples from patients with fungemia, J Clin Microbiol. 2010 June, 48(6): 2205-12]. Then, the sensitivity test vs the two oils has been performed. The disk diffusion method was carried out as follows: for each tested strain, 4 plates of Potato Dextrose Agar (PDA) were seeded in 3 directions to produce a confluent growth, by sterile swab soaked in the cell suspension. Sorbent paper disks (Oxoid Thermofisher SpA, Milan, Italy) 6.0 mm diameter were placed on the agar surface and added with 10 μl of each essential oil. Disks soaked with 10 μg amphotericin B were used as positive control. Also disks of chlortrimazole (from 10 μg to 40 μg) were used, but the inhibition rings could not be clearly read due to the formation of a re-growth ring. Disks soaked with 10 μl pure dimethylsulphoxide (DMSO, Sigma-Aldrich, St. Louis, MO, USA) were used as negative control. The plates were incubated at 35° C. for 24 hours. All the experiments were carried out in duplicate. The inhibiting effect of the oils were considered to be effective when the inhibition ring was equal or greater than that caused by amphotericin B. For amphotericin B, an inhibition zone (IZ)≥15 mm was considered as “sensitivity”, from 10 to 14 mm as “intermediate sensitivity” and <10 mm as “resistance” [Kauser et al., Agreement of Direct Antifungal Susceptibility Testing from Positive Blood Culture Bottles with Conventional Method for Candida Species, J Clin Microbiol. 2016 February, 54(2):343-34].

C. albicans [1] = test: Disk diffusion method, C. albicans strains
Description: as §1, §2

C. glabrata = test: Disk diffusion method, C. glabrata strains
Description: as §1, §2

C. lusitaniae [2] = test: Disk diffusion method, C. lusitaniae strain; conditions: C. lusitaniae 1
Description: as §1
Colonies were re-suspended in sterile saline at a density corresponding to #0.5 McFarland (opacity standard). #0.5 McF correspond to 1.4×10^6 colony forming units (CFU)/ml for C. albicans, 4.3×10^6 CFU/ml for C. glabrata and 3×10^6 CFU/ml for C. lusitaniae [Guinea J. et al., Rapid antifungal susceptibility determination for yeast isolates by use of Etest performed directly on blood samples from patients with fungemia, J Clin Microbiol. 2010 June, 48(6): 2205-12]. Then, the sensitivity test vs the two oils has been performed. The disk diffusion method was carried out as follows: for each tested strain, 4 plates of Potato Dextrose Agar (PDA) were seeded in 3 directions to produce a confluent growth, by sterile swab soaked in the cell suspension. Sorbent paper disks (Oxoid Thermofisher SpA, Milan, Italy) 6.0 mm diameter were placed on the agar surface and added with 10 μl of each essential oil. Disks soaked with 10 μg amphotericin B were used as positive control. Also disks of chlortrimazole (from 10 μg to 40 μg) were used, but the inhibition rings could not be clearly read due to the formation of a re-growth ring. Disks soaked with 10 μl pure dimethylsulphoxide (DMSO, Sigma-Aldrich, St. Louis, MO, USA) were used as negative control. The plates were incubated at 35° C. for 24 hours. All the experiments were carried out in duplicate. […]

C. albicans [3] = test: Microdilution method MIC/MFC, C. albicans strains
Description: as §1
(§3) The antifungal activity of amphotericin B and of cinnamaldheyde and eugenol were tested with the microdilution method as reported by Bona et al. [Bona et al., Sensitivity of Candida albicans to essential oils: are they an alternative to antifungal agents? J Appl Microbiol. 2016 December, 121(6): 1530-1545] with small changes. All the 18 Candida spp strains were tested. For each isolated, the colonies deriving from cultures (24 hours) in PDA were diluted in saline up to a concentration of 2×10^3 CFU/ml (so obtaining a final concentration of 10 3CGU/ml). Cinnamaldehyde and eugenol were dissolved in DMSO (80% oil, 20% DMSO), then diluted in Sabouraud broth up to a concentration of 8% v/v (so obtaining a final concentration of 4% v/v). Then, in a 96-well microtiter plate ½ serial dilution of amphotericin B (range 32-0.032 μg/ml, for a final range of 16-0.016 μg/ml) and of the essential oils (range 8-0.004% v/v, for a final range of 4-0.002% v/v) were carried out. Each well was then injected with 100 μl of cell suspension. The negative control contained DMSO diluted in Sabouraud broth (at 2% v/v, for a final concentration of 1% v/v). […] Each experiment was carried out in duplicate. The Minimum Inhibitory Concentration (MIC) was determined as the concentration of the oils in the first well which is not cloudy. The Minimum Fungicidal Concentration (MFC) was determined as the lowest concentration of the oils, with the agar culture showing the complete absence of fungal growth. The determination of the amphotericin B MIC was carried out also according to the EUCAST guidelines (cutoff 1 μg/ml) [https://eucast.org/astoffungi/clinicalbreakpointsforantifungals], all the results being consistent.

C. lusitaniae [4] = test: Microdilution method MIC/MFC, C. lusitaniae strain; conditions: C. lusitaniae 1
Description: as §1, §3

[5] = 18 strains, disk 10 μl oil or 10 μg amphotericin B, 35° C. 24 hours
[6] = disks soaked with the oils separately

MIC (C. albicans [3]; C. albicans 1): 0.032 % v/v
MIC (C. albicans [3]; C. albicans 2): 0.032 % v/v
MIC (C. albicans [3]; C. albicans 3): 0.016 % v/v
MIC (C. albicans [3]; C. albicans 4): 0.064 % v/v
MIC (C. albicans [3]; C. albicans 5): 0.008 % v/v
MIC (C. albicans [3]; C. albicans 6): 0.032 % v/v
MIC (C. albicans [3]; C. albicans 7): 0.032 % v/v
MIC (C. albicans [3]; C. albicans 8): 0.032 % v/v
MIC (C. albicans [3]; C. albicans 9): 0.125 % v/v
MIC (C. albicans [3]; C. albicans 10): 0.016 % v/v
MIC (C. albicans [3]; C. albicans 11): 0.064 % v/v
MIC (C. albicans [3]; C. albicans 12): 0.016 % v/v
MIC (C. albicans [3]; C. albicans 13): 0.064 % v/v
MIC (C. albicans [3]; C. albicans 14): 0.032 % v/v
MIC (C. albicans [3]; C. albicans 15): 0.032 % v/v
MIC (C. lusitaniae [4]): 0.032 % v/v
Compound: C=CCc1ccc(O)c(OC)c1 [Eugenol, eugenol]
inhibition rings diameter, average (including 6.0 mm of the disk) (Candida spp.; [5]): 35.2 mm
inhibition rings diameter, range (including 6.0 mm of the disk) (Candida spp.; [5]): 30.5-41 mm
inhibition of the tested Candida strains (words) (Candida spp.; [6]): inhibited the growth of all tested Candida strains
inhibition rings compared with those caused by amphotericin B (10 μg) (Candida spp.; [6]): notably greater
% inhibited strains (Candida spp.; ring equal or greater than that of amphotericin B, 18 strains): 100% (18/18)
Diameters of the inhibition rings (including 6.0 mm of the disk) (C. albicans [1]; C. albicans 1): 35.0 mm
Diameters of the inhibition rings (including 6.0 mm of the disk) (C. albicans [1]; C. albicans 2): 35.0 mm
Diameters of the inhibition rings (including 6.0 mm of the disk) (C. albicans [1]; C. albicans 3): 33.0 mm
Diameters of the inhibition rings (including 6.0 mm of the disk) (C. albicans [1]; C. albicans 4): 35.0 mm
Diameters of the inhibition rings (including 6.0 mm of the disk) (C. albicans [1]; C. albicans 5): 35.0 mm
Diameters of the inhibition rings (including 6.0 mm of the disk) (C. albicans [1]; C. albicans 6): 36.0 mm
Diameters of the inhibition rings (including 6.0 mm of the disk) (C. albicans [1]; C. albicans 7): 44.0 mm
Diameters of the inhibition rings (including 6.0 mm of the disk) (C. albicans [1]; C. albicans 8): 41.0 mm
Diameters of the inhibition rings (including 6.0 mm of the disk) (C. albicans [1]; C. albicans 9): 34.0 mm
Diameters of the inhibition rings (including 6.0 mm of the disk) (C. albicans [1]; C. albicans 10): 34.5 mm
Diameters of the inhibition rings (including 6.0 mm of the disk) (C. albicans [1]; C. albicans 11): 34.0 mm
Diameters of the inhibition rings (including 6.0 mm of the disk) (C. albicans [1]; C. albicans 12): 34.0 mm
Diameters of the inhibition rings (including 6.0 mm of the disk) (C. albicans [1]; C. albicans 13): 35.0 mm
Diameters of the inhibition rings (including 6.0 mm of the disk) (C. albicans [1]; C. albicans 14): 34.0 mm
Diameters of the inhibition rings (including 6.0 mm of the disk) (C. albicans [1]; C. albicans 15): 34.0 mm
Diameters of the inhibition rings (including 6.0 mm of the disk) (C. glabrata; C. glabrata 1): 35.0 mm
Diameters of the inhibition rings (including 6.0 mm of the disk) (C. glabrata; C. glabrata 2): 30.5 mm
Diameters of the inhibition rings (including 6.0 mm of the disk) (C. lusitaniae [2]): 43.0 mm
MFC (C. albicans [3]; C. albicans 1): 0.032 % v/v
MFC (C. albicans [3]; C. albicans 2): 0.032 % v/v
MFC (C. albicans [3]; C. albicans 3): 0.032 % v/v
MFC (C. albicans [3]; C. albicans 4): 0.064 % v/v
MFC (C. albicans [3]; C. albicans 5): 0.032 % v/v
MFC (C. albicans [3]; C. albicans 6): 0.032 % v/v
MFC (C. albicans [3]; C. albicans 7): 0.064 % v/v
MFC (C. albicans [3]; C. albicans 8): 0.032 % v/v
MFC (C. albicans [3]; C. albicans 9): 0.125 % v/v
MFC (C. albicans [3]; C. albicans 10): 0.016 % v/v
MFC (C. albicans [3]; C. albicans 11): 0.125 % v/v
MFC (C. albicans [3]; C. albicans 12): 0.064 % v/v
MFC (C. albicans [3]; C. albicans 13): 0.125 % v/v
MFC (C. albicans [3]; C. albicans 14): 0.125 % v/v
MFC (C. albicans [3]; C. albicans 15): 0.064 % v/v
MFC (C. lusitaniae [4]): 0.064 % v/v
